Results from PubChem BioAssay (NCI).
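Interpolation was linear, between the two tested concentrations surrounding the appropriate level; five concentrations were tested over 48 hours in 96-well plates. TGI is the concentration that stops growth completely.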

What was measured:
Test in all cases: NCI-60 cell line screen, 48 h
[1] = test system: K-562 leukemia
[2] = test system: COLO 205 colon
[3] = test system: DLD-1 colon
[4] = test system: A549 NSCLC
[5] = test system: RPMI-8226 leukemia
[6] = test system: SW-620 colon
[7] = test system: RXF 393 renal
[8] = test system: MOLT-4 leukemia
[9] = test system: UACC-62 melanoma
[10] = test system: NCI-H460 lung
[11] = test system: DMS 114 small cell lung
[12] = test system: NCI-H23 lung
[13] = test system: UACC-257 melanoma
[14] = test system: U251 CNS
[15] = test system: SNB-19 CNS
[16] = test system: SNB-75 CNS
[17] = test system: OVCAR-3 ovarian
[18] = test system: SK-MEL-28 melanoma
[19] = test system: NCI-H226 lung
[20] = test system: EKVX NSCLC
[21] = test system: ACHN renal
[22] = test system: UO-31 renal
[23] = test system: SK-OV-3 ovarian
[24] = test system: SNB-78 CNS
[25] = test system: OVCAR-4 ovarian
[26] = test system: HOP-92 NSCLC
[27] = test system: IGROV1 ovarian
[28] = test system: MALME-3M melanoma
[29] = test system: M19-MEL melanoma
[30] = test system: LXFL 529 NSCLC
[31] = test system: HL-60(TB) leukemia
[32] = test system: OVCAR-5 ovarian
[33] = test system: CCRF-CEM leukemia
[34] = test system: HT29 colon
[35] = test system: NCI-H522 lung
[36] = test system: DMS 273 small cell lung
[37] = test system: SF-268 CNS
[38] = test system: 786-0 renal
[39] = test system: M14 melanoma
[40] = test system: HCC-2998 colon
[41] = test system: A498 renal
[42] = test system: HOP-62 NSCLC
[43] = test system: SK-MEL-5 melanoma
[44] = test system: TK-10 renal
[45] = test system: SR leukemia
[46] = test system: CAKI-1 renal
[47] = test system: LOX IMVI melanoma
[48] = test system: SF-295 CNS
[49] = test system: SK-MEL-2 melanoma
[50] = test system: KM12 colon
[51] = test system: HCT-116 colon
[52] = test system: SF-539 CNS
[53] = test system: SN12C renal
[54] = test system: OVCAR-8 ovarian

Q: For `CC(=O)NC1=C(C)C(=O)c2c(nc3n2CCC3OC(=O)c2ccccc2)C1=O` (centres undefined), which TGI [1] is on record?
A: Its TGI is 6.17 µM.

Q: What about the TGI [2] of the same compound?
A: The TGI was 12.5 µM.

Q: And the TGI [3]?
A: The TGI was 4.46 µM.

Q: And the TGI [4]?
A: Its TGI is 3.1 µM.

Q: And the TGI [5]?
A: The TGI was 5.62 µM.

Q: What about the TGI [6] of the same compound?
A: The TGI was 4.55 µM.

Q: What about the TGI [7] of the same compound?
A: Its TGI is 11.6 µM.

Q: What about the TGI [8] of the same compound?
A: The TGI was 5.57 µM.

Q: And the TGI [9]?
A: Its TGI is 3.44 µM.

Q: What about the TGI [10] of the same compound?
A: The TGI was 5.13 µM.

Q: What about the TGI [11] of the same compound?
A: Its TGI is 2.54 µM.

Q: What about the TGI [12] of the same compound?
A: Its TGI is 3.55 µM.

Q: What about the TGI [13] of the same compound?
A: Its TGI is 2.93 µM.

Q: And the TGI [14]?
A: The TGI was 3.86 µM.

Q: What about the TGI [15] of the same compound?
A: The TGI was 7.65 µM.

Q: What about the TGI [16] of the same compound?
A: The TGI was 6.36 µM.

Q: What about the TGI [17] of the same compound?
A: Its TGI is 0.528 µM.

Q: What about the TGI [18] of the same compound?
A: The TGI was 3.67 µM.

Q: And the TGI [19]?
A: Its TGI is 4.69 µM.

Q: And the TGI [20]?
A: The TGI was 3.01 µM.

Q: What about the TGI [21] of the same compound?
A: The TGI was 8.72 µM.

Q: What about the TGI [22] of the same compound?
A: Its TGI is 6.3 µM.

Q: What about the TGI [23] of the same compound?
A: The TGI was 8.51 µM.

Q: What about the TGI [24] of the same compound?
A: The TGI was 5.46 µM.

Q: What about the TGI [25] of the same compound?
A: The TGI was 3.2 µM.

Q: What about the TGI [26] of the same compound?
A: Its TGI is 4.7 µM.

Q: And the TGI [27]?
A: The TGI was 3.98 µM.

Q: And the TGI [28]?
A: The TGI was 3.38 µM.

Q: What about the TGI [29] of the same compound?
A: Its TGI is 3.57 µM.

Q: What about the TGI [30] of the same compound?
A: Its TGI is 2.9 µM.

Q: What about the TGI [31] of the same compound?
A: The TGI was 5.13 µM.

Q: And the TGI [32]?
A: The TGI was 3.54 µM.

Q: And the TGI [33]?
A: Its TGI is 4.44 µM.

Q: And the TGI [34]?
A: The TGI was 3.48 µM.

Q: What about the TGI [35] of the same compound?
A: Its TGI is 4.06 µM.

Q: What about the TGI [36] of the same compound?
A: The TGI was 5.28 µM.

Q: And the TGI [37]?
A: Its TGI is 4.52 µM.

Q: And the TGI [38]?
A: Its TGI is 14.9 µM.

Q: And the TGI [39]?
A: Its TGI is 3.47 µM.

Q: And the TGI [40]?
A: Its TGI is 12.1 µM.

Q: What about the TGI [41] of the same compound?
A: The TGI was 25.3 µM.

Q: And the TGI [42]?
A: The TGI was 5.56 µM.

Q: What about the TGI [43] of the same compound?
A: The TGI was 3.12 µM.

Q: What about the TGI [44] of the same compound?
A: The TGI was 24.1 µM.

Q: What about the TGI [45] of the same compound?
A: The TGI was 6 µM.

Q: What about the TGI [46] of the same compound?
A: Its TGI is 4.78 µM.

Q: And the TGI [47]?
A: The TGI was 2.96 µM.

Q: And the TGI [48]?
A: Its TGI is 3.06 µM.

Q: And the TGI [49]?
A: Its TGI is 3.19 µM.

Q: What about the TGI [50] of the same compound?
A: Its TGI is 10.3 µM.

Q: What about the TGI [51] of the same compound?
A: Its TGI is 4.1 µM.

Q: What about the TGI [52] of the same compound?
A: Its TGI is 3.4 µM.

Q: What about the TGI [53] of the same compound?
A: The TGI was 3.41 µM.

Q: And the TGI [54]?
A: The TGI was 2.95 µM.
